Laboratory results reported in patent US6518302B1, “Remedies” (Takara Shuzo Co., Ltd., priority 1999, dated 2003).
Read-outs that look alike come from different tables or passages of the source.

Assays:
[1] = tested on: heme oxygenase 1 protein in RAW264.7 cells; assay: Heme oxygenase 1 induction (Western blot); type: cell-based; set-up: key: − represents no band observed; increase in the intensity of the band is represented as follows: +−<+<++; increase in the intensity of the band is represented as follows: +−<+<++; increase in the intensity of the band is represented as follows: +−<+<++; conditions: 12 hours
Description: RAW264.7 cells (ATCC TIB 71) were suspended in Dulbecco's modified Eagle's medium (Bio Whittaker, 12-604F) containing 10% fetal calf serum (Gibco) at a concentration of 3×10^5 cells/ml. 5 ml of the suspension was added to each well of a 6-well microtiter plate and the plate was incubated at 37° C. overnight in the presence of 5% CO2. 50 μl of a solution containing the compound (11) or the compound (14) at a concentration of 10 mM or 5 mM in water, 5 μl of a solution containing the compound (7) at a concentration of 50 mM or 25 mM in dimethyl sulfoxide, or 5 μl of a solution containing the compound (17) at a concentration of 100 mM or 50 mM in dimethyl sulfoxide was added to the well. The plate was incubated for 12 hours. A positive control for heme oxygenase 1 induction in which 5 μl of 3 mM solution of 15-deoxy-Δ12,14 prostaglandin J2 (Cayman Chemical, 18570) in dimethyl sulfoxide was added, and a negative control in which water was added were provided. The cells were recovered by detaching the cells from the plate using a scraper and suspended in 0.1 M tris-HCl buffer (pH 7.5) containing 0.05 mM pepstatin A (Sigma, P5318), 0.2 mM leupeptin (Sigma, L2884), 1 mM phenylmethylsulfonyl fluoride (Nacalai Tesque, 273-27), 10 mM ethylenediaminetetraacetic acid disodium salt and 0.1% Triton X-100. A supernatant obtained by centrifuging the suspension after freezing and thawing was used as a protein fraction. The content of protein in the protein fraction was determined using Micro BCA Protein Assay Reagent (a product of Pierce sold by Takara Shuzo, P7411). A sample from the protein fraction prepared as described above was mixed with an equal volume of 0.125 M tris-hydrochloride buffer (pH 6.8) containing 4% sodium lauryl sulfate (SDS), 2% 2-mercaptoethanol, 0.001% Bromophenol Blue and 20% glycerol. After treatment at 100° C. for 5 minutes, a portion corresponding to 10 μg of protein was loaded on 12.5% SDS-polyacrylamide gel and electrophoresed at a constant current of 20 mA. After electrophoresis, the gel was transferred to a PVDF membrane (Millipore, IPVH000 10) at a constant voltage of 15 V for 25 minutes using a blotting buffer (containing 48 mM tris, 39 mM glycine, 20% methanol and 0.0375% SDS) and Trans-Blot SD Cell Semi-Dry blotting apparatus (Bio-Rad) according to the attached protocol. After transferring, the PVDF membrane was blocked in a solution of Block Ace (Dainippon Pharmaceutical, UK-B25) at 4 C overnight. After blocking, the membrane washed three times in phosphate buffered saline containing 0.1% Tween 20 for 15 minutes with gentle shaking. The membrane was reacted in phosphate buffered saline containing 10% Block Ace, 0.1% Tween 20 and 200 ng/ml of anti-heme oxygenase 1 antibody (N-19; Santa Cruz, sc-7696) at room temperature for 1 hour with gentle shaking, and then washed three times in phosphate buffered saline containing 0.1% Tween 20 for 15 minutes with gentle shaking. The membrane was reacted in phosphate buffered saline containing 10% Block Ace, 0.1% Tween 20 and 0.1% peroxidase-labeled rabbit anti-goat IgG (H+L) antibody (Zymed, 61-1620) at room temperature for 1 hour with gentle shaking, and then washed five times in phosphate buffered saline containing 0.1% Tween 20 for 15 minutes with gentle shaking. The PVDF membrane was stained using Western Blot Chemiluminescence Reagent Plus (a product of NEN Life Science Products sold by Daiichi Pure Chemicals, NEL103) according to the attached protocol and exposed to an X-ray film (Kodak, CAT165 1454). After exposure, the film was developed using FPM800 (Fuji Film).
The intensity of the band depended on the concentration of the sample. In the table, the intensity of the band for heme oxygenase 1 protein is expressed by the mark +. Specifically, − represents no band observed, and increase in the intensity of the band is represented as follows: +−<+<++.

[2] = tested on: HL-60 cells (ATCC CCL-240); assay: Proliferation of HL-60 cells with or without hydroxyurea G1 arrest (WST-1); type: cell-based, Human; conditions: Homo sapiens, 48 hours
Description: HL-60 cells (ATCC CCL-240) were suspended in RPMI 1640 medium (Bio Whittaker, 12-702F) containing 10% fetal calf serum (Gibco) and 100 μM hydroxyurea at a concentration of 5×10^5 cells/ml. 20 ml of the suspension was added to a 10-cm Petri dish. The dish was incubated at 37° C. overnight in the presence of 5% CO2 to make the cells arrest at G1 phase. The cells were collected by centrifugation and resuspended in RPMI 1640 medium containing 10% fetal calf serum (Gibco) and 100 μM hydroxyurea at a concentration of 5×10^5 cells/ml. 5 ml of the suspension was added to each well of a 6-well microtiter plate. On the other hand, as cells without the treatment with hydroxyurea, HL-60 cells were suspended in RPMI 1640 medium containing 10% fetal calf serum (Gibco) at a concentration of 1×10^5 cells/ml. 5 ml of the suspension was added to each well of a 6-well microtiter plate. 50 μl of a solution containing DGE at a concentration of 30, 22.5, 15 or 7.5 mM in water, 25 μl of a solution containing the compound (7) at a concentration of 60, 45, 30 or 15 mM in dimethyl sulfoxide, or 25 μl of a solution containing the compound (17) at a concentration of 100, 75, 50 or 25 mM in dimethyl sulfoxide was added to the well containing the cells treated with hydroxyurea. 50 μl of a solution containing DGE at a concentration of 8, 6, 4 or 2 mM in water, 25 μl of a solution containing the compound (7) at a concentration of 30, 22.5, 15 or 7.5 mM in dimethyl sulfoxide, or 25 μl of a solution containing the compound (17) at a concentration of 80, 60, 40 or 20 mM in dimethyl sulfoxide was added to the well containing the cells without the treatment with hydroxyurea. The plate was incubated for additional 48 hours. Cells collected by centrifuging the culture were suspended in 5 ml of fresh RPMI 1640 medium containing 10% fetal calf serum (Gibco). 100 μl of the suspension was used for measuring viable cell number using Premix WST-1 Cell Proliferation Assay System (Takara Shuzo, MK400).
For each of the samples, the concentration at which 50% of the proliferation is inhibited (IC50) for the cells treated with hydroxyurea was higher than that for the cells without the treatment with hydroxyurea. Table 3 summarizes IC50 (μM) for each of the samples. […] Since most of cells in a living body are arrested at G1 phase, it is considered that DGE and R-AhGal compounds (precursors of DGE) are agents less toxic to a living body.

[3] = HL-60 cells arrested at G1 phase with 100 μM hydroxyurea, read-out: IC50, Cells treated with hydroxyurea
[4] = HL-60 cells, read-out: IC50, Cells without treatment with hydroxyurea

| SMILES | Intensity of band for heme oxygenase 1 protein ([1]; final concentration of 50 μM) | Intensity of band for heme oxygenase 1 protein ([1]; final concentration of 100 μM) | IC50 [2, 3] [µM] | IC50 [2, 4] [µM] | Intensity of band for heme oxygenase 1 protein ([1]; final concentration of 25 μM) |
| --- | --- | --- | --- | --- | --- |
| OCC1OC(OC2C(CO)OC(OC3C(CO)OC(OC4C(O)COC4C(O)C(O)O)C(O)C3O)C(O)C2O)C(O)C(O)C1O [Compound (14), 4-O-β-maltotoriosyl-3,6-anhydro-D-galactose] | + | + + | – | – | – |
| O=C[C@H](O)[C@H]1OC[C@@H](O)[C@@H]1OCc1ccccc1 [Compound (17), 4-O-benzyl-3,6-anhydro-D-galactose] | + | + + | 264 | 190 | – |
| O=C[C@H](O)[C@H]1OC[C@@H](O)[C@@H]1OC(=O)c1ccccc1 [Compound (7), 4-O-benzoyl-3,6-anhydro-D-galactose] | + | – | 151 | 79.1 | + |
